Reference: patent US20230023092A1, “TREATMENT OF DEPRESSION AND OTHER VARIOUS DISORDERS WITH PSILOCYBIN” (COMPASS […], priority 2019, published 2023)

System: healthy subjects
Assay: Phase 1 study: adverse events (TEAEs, MedDRA coded)
Assay type: in vivo, human
Description: A Phase 1 randomized, double-blind, placebo-controlled study to evaluate the effect of psilocybin on cognitive and emotional processing as compared to placebo in healthy volunteers was conducted. The study investigated the short-term (Day 7) and long-term (Day 28) effects of moderate (10 mg) and high doses (25 mg) of psilocybin on key domains of cognition, such as episodic memory, attention, working and spatial memory, social cognition and elements of executive function, including cognitive flexibility.
Each subject was assigned 1 treatment bottle containing 5 capsules packaged in a double-blind fashion, depending on the randomized treatment arm, the bottle contained one of the following: • a. Psilocybin 10 mg: 2×5-mg oral psilocybin capsules plus 3×placebo capsules • b. Psilocybin 25 mg: 5×5-mg oral psilocybin capsules • c. Placebo: 5×placebo capsules
Each 5-mg oral psilocybin capsules comprised 5 mg crystalline psilocybin in the form or Polymorph A, 12.5 mg of SMCC 50, 79.5 mg of SMCC 90, 1 mg sodium starch glycolate, 1 mg colloidal silicon dioxide, and 1 mg sodium stearyl fumarate
Adverse events: Throughout the course of the study, all AEs were monitored and recorded. Each AE was classified according to the following criteria: • i. […] Moderate: The AE produces some impairment of functioning, but is not hazardous to the subject's health. • iii. Severe: The AE produces significant impairment of functioning or incapacitation and is a definite hazard to the subject's health.
Visit 3 (V3): Drug Administration (Day 0): The subject was asked to eat a light breakfast at least two hours prior to coming to the clinic for study drug administration. On Day 0 (V3), the subject underwent the SSTS, had vital signs obtained, medications reviewed, AEs recorded and eligibility reviewed prior to being randomized to study drug. The study drug was administered to up to six subjects simultaneously in individual beds separated by a curtain. The subject was invited to put on eyeshades and headphones, lie down and listen to calming music for the rest of the session (six hours). The subject was supported 1:1 with a chaperone and supervised by the study psychiatrist and lead therapist.
During administration of psilocybin, each subject received one-on-one support from a trained assisting therapist and each dosing session was supervised by a study psychiatrist and a lead therapist. The study drug was administered simultaneously to up to six participants as a single 5-capsule oral dose (10 mg psilocybin: 2×5-mg psilocybin capsules plus 3×placebo capsules; 25 mg psilocybin: 5×5-mg psilocybin capsules; placebo: 5×placebo capsules). Twenty-five dosing sessions were completed, with up to six participants dosed simultaneously per session. Each session lasted approximately 6 to 8 hours with subjects encouraged to relax and engage in introspection for the duration. After the acute effects of the study drug had subsided, subjects were discharged.

CN(C)CCc1c[nH]c2cccc(OP(=O)(O)O)c12 [Psilocybin, psilocybin]
Hypoaesthesia, worst severity Moderate, N (%) (10 mg oral): 0 | Hypoaesthesia, worst severity Severe, Events (10 mg oral): 0 | Hypoaesthesia, worst severity Severe, N (%) (10 mg oral): 0 | Illusion, Events (10 mg oral): 25 | Illusion, N (%) (10 mg oral): 19 (63.3) | Illusion, worst severity Mild, Events (10 mg oral): 7 | Illusion, worst severity Mild, N (%) (10 mg oral): 7 (23.3) | Illusion, worst severity Moderate, Events (10 mg oral): 16 | Illusion, worst severity Moderate, N (%) (10 mg oral): 12 (40.0) | Illusion, worst severity Severe, Events (10 mg oral): 0 | Illusion, worst severity Severe, N (%) (10 mg oral): 0 | Infections and infestations, Events (10 mg oral): 4 | Infections and infestations, N (%) (10 mg oral): 4 (13.3) | Infections and infestations, worst severity Mild, Events (10 mg oral): 2 | Infections and infestations, worst severity Mild, N (%) (10 mg oral): 2 (6.7) | Infections and infestations, worst severity Moderate, Events (10 mg oral): 2 | Infections and infestations, worst severity Moderate, N (%) (10 mg oral): 2 (6.7) | Infections and infestations, worst severity Severe, Events (10 mg oral): 0 | Infections and infestations, worst severity Severe, N (%) (10 mg oral): 0 | Investigations, Events (10 mg oral): 2 | Investigations, N (%) (10 mg oral): 2 (6.7) | Investigations, worst severity Mild, Events (10 mg oral): 2 | Investigations, worst severity Mild, N (%) (10 mg oral): 2 (6.7) | Investigations, worst severity Moderate, Events (10 mg oral): 0 | Investigations, worst severity Moderate, N (%) (10 mg oral): 0 | Investigations, worst severity Severe, Events (10 mg oral): 0 | Investigations, worst severity Severe, N (%) (10 mg oral): 0 | Memory impairment, Events (10 mg oral): 1 | Memory impairment, N (%) (10 mg oral): 1 (3.3) | Mental fatigue, Events (10 mg oral): 0 | Mental fatigue, N (%) (10 mg oral): 0 | Mood altered, Events (10 mg oral): 23 | Mood altered, N (%) (10 mg oral): 13 (43.3) | Mood altered, worst severity Mild, Events (10 mg oral): 2 | Mood altered, worst severity Mild, N (%) (10 mg oral): 2 (6.7) | Mood altered, worst severity Moderate, Events (10 mg oral): 8 | Mood altered, worst severity Moderate, N (%) (10 mg oral): 5 (16.7) | Mood altered, worst severity Severe, Events (10 mg oral): 9 | Mood altered, worst severity Severe, N (%) (10 mg oral): 6 (20.0) | Musculoskeletal and connective tissue disorders, Events (10 mg oral): 1 | Musculoskeletal and connective tissue disorders, N (%) (10 mg oral): 1 (3.3) | Musculoskeletal and connective tissue disorders, worst severity Mild, Events (10 mg oral): 0 | Musculoskeletal and connective tissue disorders, worst severity Mild, N (%) (10 mg oral): 0 | Musculoskeletal and connective tissue disorders, worst severity Moderate, Events (10 mg oral): 1 | Musculoskeletal and connective tissue disorders, worst severity Moderate, N (%) (10 mg oral): 1 (3.3) | Musculoskeletal and connective tissue disorders, worst severity Severe, Events (10 mg oral): 0 | Musculoskeletal and connective tissue disorders, worst severity Severe, N (%) (10 mg oral): 0 | Nausea, Events (10 mg oral): 1 | Nausea, N (%) (10 mg oral): 1 (3.3) | Nervous system disorders, Events (10 mg oral): 35 | Nervous system disorders, N (%) (10 mg oral): 21 (70.0) | Nervous system disorders, worst severity Mild, Events (10 mg oral): 23 | Nervous system disorders, worst severity Mild, N (%) (10 mg oral): 15 (50.0) | Nervous system disorders, worst severity Moderate, Events (10 mg oral): 8 | Nervous system disorders, worst severity Moderate, N (%) (10 mg oral): 6 (20.0) | Nervous system disorders, worst severity Severe, Events (10 mg oral): 0 | Nervous system disorders, worst severity Severe, N (%) (10 mg oral): 0 | Paraesthesia, Events (10 mg oral): 4 | Paraesthesia, N (%) (10 mg oral): 4 (13.3) | Paraesthesia, worst severity Mild, Events (10 mg oral): 4 | Paraesthesia, worst severity Mild, N (%) (10 mg oral): 4 (13.3) | Paraesthesia, worst severity Moderate, Events (10 mg oral): 0 | Paraesthesia, worst severity Moderate, N (%) (10 mg oral): 0 | Paraesthesia, worst severity Severe, Events (10 mg oral): 0 | Paraesthesia, worst severity Severe, N (%) (10 mg oral): 0 | Psychiatric disorders, Events (10 mg oral): 121 | Psychiatric disorders, N (%) (10 mg oral): 27 (90.0) | Psychiatric disorders, worst severity Mild, Events (10 mg oral): 6 | Psychiatric disorders, worst severity Mild, N (%) (10 mg oral): 4 (13.3) | Psychiatric disorders, worst severity Moderate, Events (10 mg oral): 29 | Psychiatric disorders, worst severity Moderate, N (%) (10 mg oral): 13 (43.3) | Psychiatric disorders, worst severity Severe, Events (10 mg oral): 21 | Psychiatric disorders, worst severity Severe, N (%) (10 mg oral): 10 (33.3) | Psychomotor skills impaired, Events (10 mg oral): 1 | Psychomotor skills impaired, N (%) (10 mg oral): 1 (3.3) | Respiratory, thoracic and mediastinal disorders, Events (10 mg oral): 0 | Respiratory, thoracic and mediastinal disorders, N (%) (10 mg oral): 0 | Selected TEAE: Nervous system disorders, Events (10 mg oral): 2 | Selected TEAE: Nervous system disorders, N (%) (10 mg oral): 2 (6.7) | Selected TEAE: Psychiatric disorders, Events (10 mg oral): 104 | Selected TEAE: Psychiatric disorders, N (%) (10 mg oral): 27 (90.0) | Somatic hallucination, Events (10 mg oral): 8 | Somatic hallucination, N (%) (10 mg oral): 8 (26.7) | Somatic hallucination, worst severity Mild, Events (10 mg oral): 1 | Somatic hallucination, worst severity Mild, N (%) (10 mg oral): 1 (3.3) | Somatic hallucination, worst severity Moderate, Events (10 mg oral): 7 | Somatic hallucination, worst severity Moderate, N (%) (10 mg oral): 7 (23.3) | Somatic hallucination, worst severity Severe, Events (10 mg oral): 0 | Somatic hallucination, worst severity Severe, N (%) (10 mg oral): 0 | Substance-induced psychotic disorder, Events (10 mg oral): 0 | Substance-induced psychotic disorder, N (%) (10 mg oral): 0 | Tension headache, Events (10 mg oral): 3 | Tension headache, N (%) (10 mg oral): 3 (10.0) | Tension headache, worst severity Mild, Events (10 mg oral): 1 | Tension headache, worst severity Mild, N (%) (10 mg oral): 1 (3.3) | Tension headache, worst severity Moderate, Events (10 mg oral): 2 | Tension headache, worst severity Moderate, N (%) (10 mg oral): 2 (6.7) | Tension headache, worst severity Severe, Events (10 mg oral): 0 | Tension headache, worst severity Severe, N (%) (10 mg oral): 0 | Time perception altered, Events (10 mg oral): 2 | Time perception altered, N (%) (10 mg oral): 2 (6.7) | Time perception altered, worst severity Mild, Events (10 mg oral): 1 | Time perception altered, worst severity Mild, N (%) (10 mg oral): 1 (3.3) | Time perception altered, worst severity Moderate, Events (10 mg oral): 1 | Time perception altered, worst severity Moderate, N (%) (10 mg oral): 1 (3.3) | Time perception altered, worst severity Severe, Events (10 mg oral): 0 | Time perception altered, worst severity Severe, N (%) (10 mg oral): 0 | Adverse events reported by % of subjects (10 mg oral, 12-week study): 96.7% | Reported 'Mood altered' events: Being less judgmental (number) (10 mg psilocybin (n = 30)): 1 | Reported 'Mood altered' events: Calm (number) (10 mg psilocybin (n = 30)): 0 | Reported 'Mood altered' events: Clarity of thought (number) (10 mg psilocybin (n = 30)): 0 | Reported 'Mood altered' events: Contemplative state (number) (10 mg psilocybin (n = 30)): 1 | Reported 'Mood altered' events: Feeling more moody/sensitive (number) (10 mg psilocybin (n = 30)): 1 | Reported 'Mood altered' events: Feeling of adrenaline release (number) (10 mg psilocybin (n = 30)): 0 | Reported 'Mood altered' events: Feeling rested (number) (10 mg psilocybin (n = 30)): 1 | Reported 'Mood altered' events: Increased compassion (number) (10 mg psilocybin (n = 30)): 0 | Reported 'Mood altered' events: Increased creativity (number) (10 mg psilocybin (n = 30)): 0 | Reported 'Mood altered' events: Increased empathy (number) (10 mg psilocybin (n = 30)): 2 | Reported 'Mood altered' events: Increased sense of connectedness (number) (10 mg psilocybin (n = 30)): 0 | Reported 'Mood altered' events: Increased wit (number) (10 mg psilocybin (n = 30)): 1 | Reported 'Mood altered' events: Introspection (number) (10 mg psilocybin (n = 30)): 5 | Reported 'Mood altered' events: Laughter (number) (10 mg psilocybin (n = 30)): 1 | Reported 'Mood altered' events: More socially upbeat (number) (10 mg psilocybin (n = 30)): 0 | Reported 'Mood altered' events: Negative mood (number) (10 mg psilocybin (n = 30)): 0 | Reported 'Mood altered' events: Reflections (number) (10 mg psilocybin (n = 30)): 3 | Reported 'Mood altered' events: Saw themselves from a new perspective (number) (10 mg psilocybin (n = 30)): 0 | Reported 'Mood altered' events: Sense of oneness (number) (10 mg psilocybin (n = 30)): 4 | Reported 'Mood altered' events: Sense of openness (number) (10 mg psilocybin (n = 30)): 1 | Reported 'Mood altered' events: Unusual appreciation of music (number) (10 mg psilocybin (n = 30)): 0 | AEs deemed potentially related to study treatment, % of AEs of the arm (25 mg oral): 95.9% | Affect lability, Events (25 mg oral): 3
